What was measured:
winter barley = assay: Test E winter barley; assay type: in vivo, Hordeum vulgare; conditions: Preemergence
winter wheat [1] = assay: Test E winter wheat; assay type: in vivo, Triticum aestivum; conditions: Preemergence
wheat = assay: Test B pre/postemergence wheat; assay type: in vivo, Triticum aestivum
Method in brief: (§1)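 Test chemicals in a non-phytotoxic solvent mixture with surfactant were sprayed preemergence onto planted seeds and postemergence onto plants 2 to 18 cm tall (1- to 4-leaf stage). After twelve to sixteen days in a greenhouse, injury was visually rated against untreated controls from 0 (no effect) to 10 (complete control).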

winter wheat [2] = assay: Test E winter wheat; assay type: in vivo, Triticum aestivum; conditions: Postemergence
Method in brief: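 For postemergence, plants at the 1- to 4-leaf stage, in a 60:40 mix of sandy loam and potting mix, treated with compound formulated in a surfactant-containing non-phytotoxic solvent. Visual assessment versus untreated controls followed roughly 21–28 days in the greenhouse.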

morningglory = assay: Test B pre/postemergence morningglory; assay type: in vivo, Ipomoea hederacea
Method in brief: as §1

Italian ryegrass = assay: Test E Italian ryegrass; assay type: in vivo, Lolium multiflorum; conditions: Preemergence
blackgrass = assay: Test E blackgrass; assay type: in vivo, Alopecurus myosuroides; conditions: Preemergence
duck salad = assay: Test B flood test duck salad; assay type: in vivo, Heteranthera limosa
Method in brief: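 Each value is a visual injury score relative to controls, with 10 meaning complete control and 0 no effect. Evaluation took place twelve to sixteen days after the 2-leaf-stage plants were treated and kept in the greenhouse.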

green foxtail = assay: Test E green foxtail; assay type: in vivo, Setaria viridis; conditions: Preemergence
rape = assay: Test B pre/postemergence rape; assay type: in vivo, Brassica napus
Method in brief: as §1

wild oat = assay: Test E wild oat; assay type: in vivo, Avena fatua; conditions: Preemergence
[3] = Rate 500 g/ha, 0 to 100 scale where 0 is no effect and 100 is complete control
[4] = Rate 1000 g/ha, 0 to 100 scale, 0 no effect, 100 complete control
[5] = Preemergence, Rate 62 g/ha, scale of 0 to 10 where 0 is no effect and 10 is complete control
[6] = Preemergence, Rate 250 g/ha, scale of 0 to 10 where 0 is no effect and 10 is complete control
[7] = Preemergence, Rate 500 g/ha, scale of 0 to 10 where 0 is no effect and 10 is complete control
[8] = Rate 62 g/ha, Postemergence, scale of 0 to 10 where 0 is no effect and 10 is complete control
[9] = Rate 125 g/ha, Postemergence, scale 0 to 10
[10] = Rate 125 g/ha, Preemergence, scale of 0 to 10 where 0 is no effect and 10 is complete control
[11] = Rate 500 g/ha, Postemergence, scale 0 to 10, 0 no effect, 10 complete control
[12] = Rate 1000 g/ha, 0 to 100 scale where 0 is no effect and 100 is complete control
[13] = Rate 250 g/ha, 0 to 100 scale where 0 is no effect and 100 is complete control
[14] = Rate 500 g/ha, 0 to 100 scale, 0 is no effect, 100 is complete control
[15] = Rate 62 g/ha, headed Pre-emergence (flood test species), scale 0 to 10 (0 no effect, 10 complete control)
[16] = Rate 125 g/ha, Pre-emergence, flood test species, scale 0 to 10 where 0 is no effect and 10 is complete control
[17] = Rate 250 g/ha, Pre-emergence, flood-test species, scale 0 to 10, 0 is no effect, 10 is complete control
[18] = Rate 500 g/ha, Pre-emergence, flood test species, scale 0 to 10 (0 no effect, 10 complete control)
[19] = Rate 125 g/ha, 0 to 100 scale (0 no effect, 100 complete control)
[20] = Rate 500 g/ha, 0 to 100 scale (0 no effect, 100 complete control)
[21] = Rate 62 g/ha, Postemergence, scale 0 to 10 (0 no effect, 10 complete control)
[22] = Rate 125 g/ha, Postemergence, scale of 0 to 10 where 0 is no effect and 10 is complete control
[23] = Rate 250 g/ha, Postemergence, scale of 0 to 10 where 0 is no effect and 10 is complete control
[24] = Rate 125 g/ha, 0 to 100 scale, 0 is no effect, 100 is complete control
[25] = Rate 62 g/ha, 0 to 100 scale, 0 no effect, 100 complete control

Cc1nc(C)c(Cn2c(=O)on(C(=O)N(c3ccc(F)cc3)C(C)C)c2=O)s1 [Compound 232]
Barley (winter) plant response rating (0 to 100 scale) (winter barley; Rate 250 g/ha): 20
Plant response rating, Barley (winter) (winter barley; [3]): 20
Plant response rating, Barley (winter) (winter barley; [4]): 55
Wheat (winter) plant response rating (0 to 100 scale) (winter wheat [1]; Rate 250 g/ha): 30
Plant response rating, Wheat (winter) (winter wheat [1]; [3]): 30
Plant response rating, Wheat (winter) (winter wheat [1]; [4]): 50
Wheat plant response rating (wheat; [5]): 0
Wheat plant response rating (wheat; [6]): 0
Plant response rating, Wheat (wheat; [7]): 0
Wheat plant response rating (wheat; [8]): 0
Wheat plant response rating (wheat; [9]): 0
Wheat plant response rating (wheat; [10]): 0
Plant response rating (0 to 10; 0 is no effect, 10 is complete control), Wheat (wheat; Rate 250 g/ha, Postemergence): 0
Wheat plant response rating (wheat; [11]): 0
Plant response rating, Wheat (winter) (winter wheat [2]; [12]): 60
Wheat (winter) plant response rating (winter wheat [2]; [13]): 40
Plant response rating, Wheat (winter) (winter wheat [2]; [14]): 50
Morningglory plant response rating (morningglory; [5]): 0
Morningglory plant response rating (morningglory; [6]): 0
Plant response rating, Morningglory (morningglory; [7]): 0
Morningglory plant response rating (morningglory; [8]): 3
Morningglory plant response rating (morningglory; [9]): 8
Morningglory plant response rating (morningglory; [10]): 0
Plant response rating (0 to 10; 0 is no effect, 10 is complete control), Morningglory (morningglory; Rate 250 g/ha, Postemergence): 8
Morningglory plant response rating (morningglory; [11]): 8
I. Ryegrass plant response rating (0 to 100 scale) (Italian ryegrass; Rate 250 g/ha): 40
Plant response rating, I. Ryegrass (Italian ryegrass; [3]): 50
Plant response rating, I. Ryegrass (Italian ryegrass; [4]): 55
Blackgrass plant response rating (0 to 100 scale) (blackgrass; Rate 250 g/ha): 30
Plant response rating, Blackgrass (blackgrass; [3]): 50
Plant response rating, Blackgrass (blackgrass; [4]): 50
Ducksalad plant response rating (duck salad; [15]): 0
Ducksalad plant response rating (duck salad; [16]): 0
Ducksalad plant response rating (duck salad; [17]): 0
Ducksalad plant response rating (duck salad; [18]): 0
Green foxtail plant response rating (0 to 100 scale) (green foxtail; Rate 250 g/ha): 95
Plant response rating, Green foxtail (green foxtail; [3]): 90
Plant response rating, Green foxtail (green foxtail; [4]): 100
Rape plant response rating (rape; [5]): 0
Rape plant response rating (rape; [6]): 0
Plant response rating, Rape (rape; [7]): 0
Rape plant response rating (rape; [8]): 0
Rape plant response rating (rape; [9]): 2
Rape plant response rating (rape; [10]): 0
Plant response rating (0 to 10; 0 is no effect, 10 is complete control), Rape (rape; Rate 250 g/ha, Postemergence): 2
Rape plant response rating (rape; [11]): 2
Wild oat plant response rating (0 to 100 scale) (wild oat; Rate 250 g/ha): 55
Plant response rating, Wild oat (wild oat; [3]): 50
Plant response rating, Wild oat (wild oat; [4]): 60

CC(C)N(C(=O)n1oc(=O)n(CC(C)(C)C)c1=O)c1ccc(F)cc1F [Compound 277]
Plant response rating, Barley (winter) (winter barley; [19]): 30
Barley (winter) plant response rating (0 to 100 scale) (winter barley; Rate 250 g/ha): 50
Plant response rating, Barley (winter) (winter barley; [20]): 65
Plant response rating, Barley (winter) (winter barley; [4]): 50
Plant response rating, Wheat (winter) (winter wheat [1]; [19]): 30
Wheat (winter) plant response rating (0 to 100 scale) (winter wheat [1]; Rate 250 g/ha): 20
Plant response rating, Wheat (winter) (winter wheat [1]; [20]): 10
Plant response rating, Wheat (winter) (winter wheat [1]; [4]): 50
Wheat plant response rating (wheat; [6]): 0
Plant response rating, Wheat (wheat; [7]): 4
Wheat plant response rating (wheat; [21]): 0
Wheat plant response rating (wheat; [22]): 0
Wheat plant response rating (wheat; [10]): 0
Plant response rating, Wheat (wheat; [23]): 0
Wheat plant response rating (wheat; [11]): 0
Plant response rating, Wheat (winter) (winter wheat [2]; [24]): 0
Plant response rating, Wheat (winter) (winter wheat [2]; [12]): 10
Wheat (winter) plant response rating (winter wheat [2]; [13]): 0
Plant response rating, Wheat (winter) (winter wheat [2]; [14]): 0
Morningglory plant response rating (morningglory; [5]): 0
Morningglory plant response rating (morningglory; [6]): 0
Plant response rating, Morningglory (morningglory; [7]): 0
Morningglory plant response rating (morningglory; [21]): 7
Morningglory plant response rating (morningglory; [22]): 8
Morningglory plant response rating (morningglory; [10]): 0
Plant response rating, Morningglory (morningglory; [23]): 8
Morningglory plant response rating (morningglory; [11]): 9
Plant response rating, I. Ryegrass (Italian ryegrass; [19]): 65
I. Ryegrass plant response rating (0 to 100 scale) (Italian ryegrass; Rate 250 g/ha): 75
Plant response rating, I. Ryegrass (Italian ryegrass; [20]): 95
Plant response rating, I. Ryegrass (Italian ryegrass; [4]): 100
Plant response rating, Blackgrass (blackgrass; [19]): 60
Blackgrass plant response rating (0 to 100 scale) (blackgrass; Rate 250 g/ha): 100
Plant response rating, Blackgrass (blackgrass; [20]): 70
Plant response rating, Blackgrass (blackgrass; [4]): 100
Ducksalad plant response rating (duck salad; [15]): 1
Ducksalad plant response rating (duck salad; [16]): 2
Ducksalad plant response rating (duck salad; [17]): 2
Ducksalad plant response rating (duck salad; [18]): 2
Plant response rating, Green foxtail (green foxtail; [19]): 95
Green foxtail plant response rating (0 to 100 scale) (green foxtail; Rate 250 g/ha): 100
Plant response rating, Green foxtail (green foxtail; [20]): 100
Plant response rating, Green foxtail (green foxtail; [4]): 100
Rape plant response rating (rape; [6]): 1
Plant response rating, Rape (rape; [7]): 2
Rape plant response rating (rape; [21]): 0
Rape plant response rating (rape; [22]): 2
Rape plant response rating (rape; [10]): 1
Plant response rating, Rape (rape; [23]): 3
Rape plant response rating (rape; [11]): 3
Plant response rating, Wild oat (wild oat; [19]): 50
Wild oat plant response rating (0 to 100 scale) (wild oat; Rate 250 g/ha): 60
Plant response rating, Wild oat (wild oat; [20]): 65
Plant response rating, Wild oat (wild oat; [4]): 70

CC(C)N(C(=O)n1oc(=O)n(C2CCOCC2)c1=O)c1ccc(F)cc1 [Compound 310]
Plant response rating, Barley (winter) (winter barley; [25]): 50
Plant response rating, Barley (winter) (winter barley; [19]): 60
Plant response rating, Barley (winter) (winter barley; Rate 250 g/ha, 0 to 100 scale, 0 no effect, 100 complete control): 70
Plant response rating, Wheat (winter) (winter wheat [1]; [25]): 60
Plant response rating, Wheat (winter) (winter wheat [1]; [19]): 40
Plant response rating, Wheat (winter) (winter wheat [1]; Rate 250 g/ha, 0 to 100 scale): 70
Wheat plant response rating (wheat; [5]): 2
Wheat plant response rating (0 to 10 scale) (wheat; Preemergence, Rate 125 g/ha): 2
Wheat plant response rating (wheat; [6]): 5
Wheat plant response rating (wheat; [7]): 7
Wheat plant response rating (wheat; [21]): 4
Wheat plant response rating (wheat; [22]): 4
Plant response rating, Wheat (wheat; [23]): 6
Plant response rating, Wheat (winter) (winter wheat [2]; Rate 62 g/ha, 0 to 100 scale): 75
Plant response rating, Wheat (winter) (winter wheat [2]; [24]): 80
Plant response rating, Wheat (winter) (winter wheat [2]; Rate 250 g/ha, 0 to 100 scale, 0 is no effect, 100 is complete control): 80
Morningglory plant response rating (morningglory; [5]): 2
Morningglory plant response rating (0 to 10 scale) (morningglory; Preemergence, Rate 125 g/ha): 6
Morningglory plant response rating (morningglory; [6]): 6
Morningglory plant response rating (morningglory; [7]): 8
Morningglory plant response rating (morningglory; [21]): 4
Morningglory plant response rating (morningglory; [22]): 5
Plant response rating, Morningglory (morningglory; [23]): 7
Plant response rating, I. Ryegrass (Italian ryegrass; [25]): 70
Plant response rating, I. Ryegrass (Italian ryegrass; [19]): 70
Plant response rating, I. Ryegrass (Italian ryegrass; Rate 250 g/ha, 0 to 100 scale): 70
Plant response rating, Blackgrass (blackgrass; [25]): 85
Plant response rating, Blackgrass (blackgrass; [19]): 85
Plant response rating, Blackgrass (blackgrass; Rate 250 g/ha, 0 to 100 scale): 85
Ducksalad plant response rating (duck salad; Pre-emergence, Rate 1000 g/ha, scale 0 to 10 (0 no effect, 10 complete control)): 0
Ducksalad plant response rating (duck salad; [15]): 0
Ducksalad plant response rating (duck salad; [16]): 0
Ducksalad plant response rating (duck salad; [17]): 0
Ducksalad plant response rating (duck salad; [18]): 3
Plant response rating, Green foxtail (green foxtail; [25]): 100
Plant response rating, Green foxtail (green foxtail; [19]): 100
Plant response rating, Green foxtail (green foxtail; Rate 250 g/ha, 0 to 100 scale): 100
Rape plant response rating (rape; [5]): 5
Rape plant response rating (0 to 10 scale) (rape; Preemergence, Rate 125 g/ha): 6
Rape plant response rating (rape; [6]): 10
Rape plant response rating (rape; [7]): 10
Rape plant response rating (rape; [21]): 0
Rape plant response rating (rape; [22]): 0
Plant response rating, Rape (rape; [23]): 0
Plant response rating, Wild oat (wild oat; [25]): 70
Plant response rating, Wild oat (wild oat; [19]): 50
Plant response rating, Wild oat (wild oat; Rate 250 g/ha, 0 to 100 scale): 70
